{
  "source": "DBAASP",
  "test_in_all_cases": "≥ marks a high value that may be exact or a test limit, other limits are often not marked, values filed in µg/mL are converted to µM",
  "key": {"[1]": {"system": "Acinetobacter baumannii Ab1408"}, "[2]": {"system": "Acinetobacter baumannii Ab5753"}, "[3]": {"system": "Acinetobacter baumannii Ab5755"}, "[4]": {"system": "Acinetobacter calcoaceticus"}, "[5]": {"system": "Aspergillus nidulans"}, "[6]": {"system": "Aspergillus terreus GIM 3.34"}, "[7]": {"system": "Bacillus cereus"}, "[8]": {"system": "Bacillus pumilus"}, "[9]": {"system": "Bacillus subtilis"}, "[10]": {"system": "Candida albicans ATCC 2002"}, "[11]": {"system": "Chaetomium globosum"}, "[12]": {"system": "Enterococcus faecium"}, "[13]": {"system": "Escherichia coli ATCC 25922"}, "[14]": {"system": "Escherichia coli Ec513"}, "[15]": {"system": "Escherichia coli K-12"}, "[16]": {"system": "Escherichia coli K88"}, "[17]": {"system": "Escherichia coli O78"}, "[18]": {"system": "Escherichia coli"}, "[19]": {"system": "Pseudomonas aeruginosa ATCC 27853"}, "[20]": {"system": "Pseudomonas aeruginosa Pa1409"}, "[21]": {"system": "Pseudomonas aeruginosa Pa4216"}, "[22]": {"system": "Pseudomonas aeruginosa"}, "[23]": {"system": "Pseudomonas luteola"}, "[24]": {"system": "Saccharibacillus kuerlensis"}, "[25]": {"system": "Salmonella enterica subsp. enterica serovar Choleraesuis CMCC 50020"}, "[26]": {"system": "Salmonella enterica subsp. enterica serovar Enteritidis CMCC 50041"}, "[27]": {"system": "Salmonella enterica subsp. enterica serovar Typhi"}, "[28]": {"system": "Salmonella typhimurium CMCC 50013"}, "[29]": {"system": "Serratia marcescens MA"}, "[30]": {"system": "Serratia marcescens SA"}, "[31]": {"system": "Sphingobacterium siyangense"}, "[32]": {"system": "Staphylococcus aureus 08031002"}, "[33]": {"system": "Staphylococcus aureus 08031013"}, "[34]": {"system": "Staphylococcus aureus 08032706"}, "[35]": {"system": "Staphylococcus aureus 08032712"}, "[36]": {"system": "Staphylococcus aureus 08032810"}, "[37]": {"system": "Staphylococcus aureus 08A865"}, "[38]": {"system": "Staphylococcus aureus 08A875"}, "[39]": {"system": "Staphylococcus aureus ATCC 25923"}, "[40]": {"system": "Staphylococcus aureus ATCC 2592"}, "[41]": {"system": "Staphylococcus aureus Sa1390"}, "[42]": {"system": "Staphylococcus epidermidis ATCC 12228"}, "[43]": {"system": "Escherichia coli 55B5"}, "[44]": {"system": "Escherichia coli UB1005"}, "[45]": {"system": "Salmonella typhimurium"}, "[46]": {"system": "Staphylococcus aureus"}, "[47]": {"system": "Bacillus licheniformis X39"}, "[48]": {"system": "Enterococcus faecalis 981"}, "[49]": {"system": "Psychrobacter faecalis X29"}, "[50]": {"system": "Rhodococcus rhodochrous X15"}, "[51]": {"system": "Serratia rubidaea X01"}, "[52]": {"system": "Staphylococcus carnosus KHS"}, "[53]": {"system": "Staphylococcus aureus 930918-3"}, "[54]": {"system": "Staphylococcus aureus ATCC 33591"}},
  "note": "Where “and” joins values, the source holds several entries; their conditions need not be identical. Equal entries are not always repeated.",
  "data": [
    {"smiles": "CC[C@H](C)[C@H](NC(=O)[C@@H](NC(=O)[C@H](CCCN=C(N)N)NC(=O)[C@@H]1CCCN1C(=O)[C@H](CCCCN)NC(=O)[C@H](CCCCN)NC(=O)[C@H](Cc1ccccc1)NC(=O)[C@H](Cc1ccccc1)NC(=O)[C@H](CCC(=O)O)NC(=O)[C@H](CCCCN)NC(=O)[C@H](C)NC(=O)[C@H](CCCN=C(N)N)NC(=O)[C@H](CCCCN)NC(=O)[C@H](CCCCN)NC(=O)[C@@H](NC(=O)[C@H](CO)NC(=O)[C@H](CCCCN)NC(=O)[C@H](CCCCN)NC(=O)[C@H](CC(C)C)NC(=O)[C@H](CCCCN)NC(=O)[C@H](CCCN=C(N)N)NC(=O)[C@H](Cc1ccccc1)NC(=O)[C@H](Cc1ccccc1)NC(=O)[C@@H](N)CCCCN)C(C)C)C(C)C)C(=O)NCC(=O)N[C@H](C(=O)N[C@@H](CO)C(=O)N[C@H](C(=O)N1CCC[C@H]1C(=O)N[C@@H](Cc1ccccc1)C(=O)O)[C@@H](C)CC)C(C)C", "note": "[KFFRKLKKSVKKRAKEFFKKPRVIGVSIPF]", "values": [
      {"measurement": "MIC", "setting": "[1]", "result": 4.4, "unit": "µM"},
      {"measurement": "MIC", "setting": "[2]", "result": 4.4, "unit": "µM"},
      {"measurement": "MIC", "setting": "[3]", "result": 1.1, "unit": "µM"},
      {"measurement": "MIC", "setting": "[4]", "result": 0.632, "unit": "µM"},
      {"measurement": "MIC", "setting": "[5]", "result": 5.14, "unit": "µM"},
      {"measurement": "MIC", "setting": "[6]", "result": 5.14, "unit": "µM"},
      {"measurement": "MIC", "setting": "[7]", "result": 0.33, "unit": "µM"},
      {"measurement": "MIC", "setting": "[8]", "result": 2.58, "unit": "µM"},
      {"measurement": "MIC", "setting": "[9]", "result": 2.58, "unit": "µM"},
      {"measurement": "MIC", "setting": "[10]", "result": "1.29 µM and 0.66 µM"},
      {"measurement": "MIC", "setting": "[11]", "result": 10.3, "unit": "µM"},
      {"measurement": "MIC", "setting": "[12]", "result": "≥ 41.2", "unit": "µM"},
      {"measurement": "MIC", "setting": "[13]", "result": 0.632, "unit": "µM"},
      {"measurement": "MIC", "setting": "[14]", "result": 2.2, "unit": "µM"},
      {"measurement": "MIC", "setting": "[15]", "result": 0.275, "unit": "µM"},
      {"measurement": "MIC", "setting": "[16]", "result": 1.1, "unit": "µM"},
      {"measurement": "MIC", "setting": "[17]", "result": 4.4, "unit": "µM"},
      {"measurement": "MIC", "setting": "[18]", "result": 0.323, "unit": "µM"},
      {"measurement": "MIC", "setting": "[19]", "result": "0.33 µM and > 0.165 µM"},
      {"measurement": "MIC", "setting": "[20]", "result": 2.2, "unit": "µM"},
      {"measurement": "MIC", "setting": "[21]", "result": 1.1, "unit": "µM"},
      {"measurement": "MIC", "setting": "[22]", "result": 3.64, "unit": "µM"},
      {"measurement": "MIC", "setting": "[23]", "result": 0.33, "unit": "µM"},
      {"measurement": "MIC", "setting": "[24]", "result": 1.29, "unit": "µM"},
      {"measurement": "MIC", "setting": "[25]", "result": 0.55, "unit": "µM"},
      {"measurement": "MIC", "setting": "[26]", "result": 1.1, "unit": "µM"},
      {"measurement": "MIC", "setting": "[27]", "result": 0.33, "unit": "µM"},
      {"measurement": "MIC", "setting": "[28]", "result": 1.1, "unit": "µM"},
      {"measurement": "MIC", "setting": "[29]", "result": "≥ 110", "unit": "µM"},
      {"measurement": "MIC", "setting": "[30]", "result": "≥ 110", "unit": "µM"},
      {"measurement": "MIC", "setting": "[31]", "result": 2.58, "unit": "µM"},
      {"measurement": "MIC", "setting": "[32]", "result": 27.5, "unit": "µM"},
      {"measurement": "MIC", "setting": "[33]", "result": 27.5, "unit": "µM"},
      {"measurement": "MIC", "setting": "[34]", "result": 27.5, "unit": "µM"},
      {"measurement": "MIC", "setting": "[35]", "result": 27.5, "unit": "µM"},
      {"measurement": "MIC", "setting": "[36]", "result": 27.5, "unit": "µM"},
      {"measurement": "MIC", "setting": "[37]", "result": "≥ 110", "unit": "µM"},
      {"measurement": "MIC", "setting": "[38]", "result": 20.6, "unit": "µM"},
      {"measurement": "MIC", "setting": "[39]", "result": 1.1, "unit": "µM"},
      {"measurement": "MIC", "setting": "[40]", "result": "1.29 µM and 0.66 µM"},
      {"measurement": "MIC", "setting": "[41]", "result": "≥ 35.2", "unit": "µM"},
      {"measurement": "MIC", "setting": "[42]", "result": 2.2, "unit": "µM"}
    ]},
    {"smiles": "CC[C@H](C)[C@H](NC(=O)[C@H](C)N)C(=O)N[C@@H](Cc1cnc[nH]1)C(=O)N[C@@H](CC(N)=O)C(=O)N[C@@H](CC(C)C)C(=O)N[C@@H](C)C(=O)N[C@@H](Cc1cnc[nH]1)C(=O)N[C@@H](CCCCN)C(=O)N[C@@H](CC(C)C)C(=O)N[C@@H](CC(C)C)C(=O)N[C@@H](CCCCN)C(=O)N[C@@H](CCCCN)C(=O)N[C@@H](CC(C)C)C(=O)N[C@H](C(=O)N[C@@H](CCCN=C(N)N)C(=O)N[C@@H](C)C(=O)N[C@H](C(=O)N[C@@H](CCCCN)C(=O)N[C@@H](CCCCN)C(=O)N[C@@H](CC(C)C)C(=O)N[C@@H](C)C(=O)N[C@@H](CC(N)=O)C(=O)O)C(C)C)[C@@H](C)O", "note": "[AIHNLAHKLLKKLTRAVKKLAN]", "values": [
      {"measurement": "MIC", "setting": "[43]", "result": 1.8, "unit": "µM"},
      {"measurement": "MIC", "setting": "[44]", "result": 2.1, "unit": "µM"},
      {"measurement": "MIC", "setting": "[22]", "result": 3, "unit": "µM"},
      {"measurement": "MIC", "setting": "[45]", "result": 4.8, "unit": "µM"},
      {"measurement": "MIC", "setting": "[46]", "result": 55, "unit": "µM"}
    ]},
    {"smiles": "CC[C@H](C)[C@H](NC(=O)[C@H](CC(C)C)NC(=O)[C@@H](NC(=O)[C@@H]1CCCN1C(=O)[C@@H](NC(=O)[C@@H](NC(=O)[C@H](CC(N)=O)NC(=O)[C@H](CO)NC(=O)[C@H](C)NC(=O)[C@@H](NC(=O)[C@H](CC(N)=O)NC(=O)[C@H](CC(C)C)NC(=O)[C@H](CC(C)C)NC(=O)[C@@H](NC(=O)[C@H](CO)NC(=O)[C@H](CC(C)C)NC(=O)[C@@H](N)Cc1ccccc1)[C@@H](C)O)C(C)C)C(C)C)C(C)C)[C@@H](C)O)C(=O)N[C@H]1CSSC[C@@H](C(=O)O)NC(=O)[C@H](CCCCN)NC(=O)[C@H](CCCCN)NC(=O)[C@H]([C@@H](C)O)NC(=O)[C@H]([C@@H](C)CC)NC(=O)[C@H](CCCCN)NC1=O", "note": "[FLSTLLNVASNVVPTLICKITKKC]", "values": [
      {"measurement": "MIC", "setting": "[47]", "result": 9, "unit": "µM"},
      {"measurement": "MIC", "setting": "[48]", "result": "≥ 75", "unit": "µM"},
      {"measurement": "MIC", "setting": "[13]", "result": 150, "unit": "µM"},
      {"measurement": "MIC", "setting": "[49]", "result": 4.5, "unit": "µM"},
      {"measurement": "MIC", "setting": "[50]", "result": 2.3, "unit": "µM"},
      {"measurement": "MIC", "setting": "[51]", "result": 9, "unit": "µM"},
      {"measurement": "MIC", "setting": "[39]", "result": 19, "unit": "µM"},
      {"measurement": "MIC", "setting": "[52]", "result": 19, "unit": "µM"}
    ]},
    {"smiles": "CC[C@H](C)[C@H](NC(=O)[C@H](CCCCN)NC(=O)[C@H](CCCCN)NC(=O)[C@H](CC(C)C)NC(=O)[C@H](CCCCN)NC(=O)[C@H](CCC(=O)O)NC(=O)[C@H](CCCCN)NC(=O)[C@@H](NC(=O)[C@H](CCCCN)NC(=O)[C@H](CC(N)=O)NC(=O)[C@H](CCCN=C(N)N)NC(=O)[C@H](Cc1ccccc1)NC(=O)[C@H](CCCCN)NC(=O)[C@@H](N)CCCN=C(N)N)[C@@H](C)CC)C(=O)NCC(=O)O", "note": "[RKFRNKIKEKLKKIG]", "values": [
      {"measurement": "MIC", "setting": "[53]", "result": "0.95 µM and 1.17 µM"},
      {"measurement": "MIC", "setting": "[54]", "result": "≥ 130", "unit": "µM"}
    ]}
  ]
}
